Assay results from ChEMBL document CHEMBL4308908, “Lamellarin-inspired potent topoisomerase I inhibitors with the unprecedented benzo[g][1]benzopyrano[4,3-b]indol-6(13H)-one scaffold” (Bioorg Med Chem, 2019).
The source made the active and inactive calls. The rule behind the calls is not given here.

Assays:
[1] = tested on: DMS-273; assay: Antiproliferative activity against human DMS273 cells after 48 hrs by SRB assay; format: functional; conditions: DMS-273, 48 h
[2] = tested on: MKN-7; assay: Antiproliferative activity against human MKN7 cells after 48 hrs by SRB assay; format: functional; conditions: MKN-7, 48 h
[3] = tested on: U-251; assay: Antiproliferative activity against human U251 cells after 48 hrs by SRB assay; format: functional; conditions: U-251, 48 h
[4] = tested on: LOX IMVI; assay: Antiproliferative activity against human LOXIMVI cells after 48 hrs by SRB assay; format: functional
[5] = tested on: MKN-45; assay: Antiproliferative activity against human MKN45 cells after 48 hrs by SRB assay; format: functional; conditions: MKN-45, 48 h
[6] = tested on: PC-3; assay: Antiproliferative activity against human PC3 cells after 48 hrs by SRB assay; format: functional; conditions: PC-3, 48 h
[7] = tested on: HCT-15; assay: Antiproliferative activity against human HCT15 cells after 48 hrs by SRB assay; format: functional; conditions: HCT-15, 48 h
[8] = tested on: OVCAR-8; assay: Antiproliferative activity against human OVCAR8 cells after 48 hrs by SRB assay; format: functional; conditions: OVCAR-8, 48 h
[9] = tested on: OVCAR-5; assay: Antiproliferative activity against human OVCAR5 cells after 48 hrs by SRB assay; format: functional; conditions: OVCAR-5, 48 h
[10] = tested on: ACHN; assay: Antiproliferative activity against human ACHN cells after 48 hrs by SRB assay; format: functional
[11] = Antiproliferative activity against human HBC5 cells after 48 hrs by SRB assay; format: functional; conditions: HBC5, 48 h
[12] = tested on: SF-295; assay: Antiproliferative activity against human SF295 cells after 48 hrs by SRB assay; format: functional; conditions: SF-295, 48 h
[13] = tested on: DMS-114; assay: Antiproliferative activity against human DMS114 cells after 48 hrs by SRB assay; format: functional; conditions: DMS-114, 48 h
[14] = tested on: SF-268; assay: Antiproliferative activity against human SF268 cells after 48 hrs by SRB assay; format: functional; conditions: SF-268, 48 h
[15] = tested on: HCT-116; assay: Antiproliferative activity against human HCT116 cells after 48 hrs by SRB assay; format: functional; conditions: HCT-116, 48 h
[16] = tested on: DU-145; assay: Antiproliferative activity against human DU145 cells after 48 hrs by SRB assay; format: functional; conditions: DU-145, 48 h
[17] = tested on: SNB-75; assay: Antiproliferative activity against human SNB75 cells after 48 hrs by SRB assay; format: functional; conditions: SNB-75, 48 h
[18] = tested on: RXF 631; assay: Antiproliferative activity against human RXF631L cells after 48 hrs by SRB assay; format: functional; conditions: RXF 631, 48 h
[19] = tested on: KM12; assay: Antiproliferative activity against human KM12 cells after 48 hrs by SRB assay; format: functional; conditions: KM12, 48 h
[20] = tested on: OVCAR-4; assay: Antiproliferative activity against human OVCAR4 cells after 48 hrs by SRB assay; format: functional; conditions: OVCAR-4, 48 h
[21] = tested on: A549; assay: Antiproliferative activity against human A549 cells after 48 hrs by SRB assay; format: functional; conditions: A549, 48 h
[22] = tested on: MKN-28; assay: Antiproliferative activity against human MKN28 cells after 48 hrs by SRB assay; format: functional; conditions: MKN-28, 48 h
[23] = tested on: NCI-H460; assay: Antiproliferative activity against human NCI-H460 cells after 48 hrs by SRB assay; format: functional; conditions: NCI-H460, 48 h
[24] = tested on: MKN-74; assay: Antiproliferative activity against human MKN74 cells after 48 hrs by SRB assay; format: functional; conditions: MKN-74, 48 h
[25] = tested on: NCI-H226; assay: Antiproliferative activity against human NCI-H226 cells after 48 hrs by SRB assay; format: functional; conditions: NCI-H226, 48 h
[26] = tested on: HCC 2998; assay: Antiproliferative activity against human HCC2998 cells after 48 hrs by SRB assay; format: functional; conditions: HCC 2998, 48 h
[27] = tested on: MDA-MB-231; assay: Antiproliferative activity against human MDA-MB-231 cells after 48 hrs by SRB assay; format: functional; conditions: MDA-MB-231, 48 h
[28] = tested on: MKN-1; assay: Antiproliferative activity against human MKN1 cells after 48 hrs by SRB assay; format: functional; conditions: MKN-1, 48 h
[29] = tested on: OVCAR-3; assay: Antiproliferative activity against human OVCAR3 cells after 48 hrs by SRB assay; format: functional; conditions: OVCAR-3, 48 h
[30] = tested on: HT-29; assay: Antiproliferative activity against human HT-29 cells after 48 hrs by SRB assay; format: functional; conditions: HT-29, 48 h
[31] = tested on: SK-OV-3; assay: Antiproliferative activity against human SKOV3 cells after 48 hrs by SRB assay; format: functional; conditions: SK-OV-3, 48 h
[32] = Antiproliferative activity against human HBC4 cells after 48 hrs by SRB assay; format: functional; conditions: HBC4, 48 h
[33] = tested on: NCI-H23; assay: Antiproliferative activity against human NCI-H23 cells after 48 hrs by SRB assay; format: functional; conditions: NCI-H23, 48 h
[34] = Antiproliferative activity against human BSY1 cells after 48 hrs by SRB assay; format: functional; conditions: BSY-1, 48 h
[35] = tested on: SNB-78; assay: Antiproliferative activity against human SNB78 cells after 48 hrs by SRB assay; format: functional; conditions: SNB-78, 48 h
[36] = tested on: NCI-H522; assay: Antiproliferative activity against human NCI-H522 cells after 48 hrs by SRB assay; format: functional; conditions: NCI-H522, 48 h
[37] = tested on: SF-539; assay: Antiproliferative activity against human SF539 cells after 48 hrs by SRB assay; format: functional; conditions: SF-539, 48 h
[38] = biological target: T1, DNA topoisomerase I (Bos taurus) (UniProt F1MN93); assay: Inhibition of calf thymus DNA topoisomerase 1 assessed as reduction in enzyme-mediated relaxation of supercoiled pBR322 plasmid DNA at 10 uM after 30 mins by ethidium bromide staining-based agarose gel electrophoresis
T1 sequence (whole entry): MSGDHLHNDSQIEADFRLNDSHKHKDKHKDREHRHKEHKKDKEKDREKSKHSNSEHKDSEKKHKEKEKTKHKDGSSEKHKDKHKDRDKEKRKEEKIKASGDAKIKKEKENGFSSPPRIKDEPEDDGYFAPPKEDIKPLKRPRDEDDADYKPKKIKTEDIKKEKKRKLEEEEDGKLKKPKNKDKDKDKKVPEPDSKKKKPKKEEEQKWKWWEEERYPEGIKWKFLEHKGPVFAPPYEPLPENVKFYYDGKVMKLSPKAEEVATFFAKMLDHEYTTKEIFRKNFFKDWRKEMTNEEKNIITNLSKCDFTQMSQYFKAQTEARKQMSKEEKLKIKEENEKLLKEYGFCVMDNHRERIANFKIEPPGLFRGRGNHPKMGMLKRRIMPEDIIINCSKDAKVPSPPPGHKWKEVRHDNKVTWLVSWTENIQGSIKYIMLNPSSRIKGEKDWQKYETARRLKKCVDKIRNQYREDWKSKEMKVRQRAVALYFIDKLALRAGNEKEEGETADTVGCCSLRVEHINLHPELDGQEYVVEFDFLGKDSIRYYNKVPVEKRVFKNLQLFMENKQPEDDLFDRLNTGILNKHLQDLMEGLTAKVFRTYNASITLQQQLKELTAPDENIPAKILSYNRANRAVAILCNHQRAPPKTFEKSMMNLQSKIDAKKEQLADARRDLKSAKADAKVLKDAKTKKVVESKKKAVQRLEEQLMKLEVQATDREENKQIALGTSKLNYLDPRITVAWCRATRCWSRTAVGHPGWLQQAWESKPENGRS

[39] = tested on: St-4; assay: Antiproliferative activity against human St-4 cells after 48 hrs by SRB assay; format: functional; conditions: St-4, 48 h
[40] = tested on: MCF7; assay: Antiproliferative activity against human MCF7 cells after 48 hrs by SRB assay; format: functional; conditions: MCF7, 48 h
[41] = biological target: T1, DNA topoisomerase I (Bos taurus); assay: Inhibition of calf thymus DNA topoisomerase 1 assessed as reduction in enzyme-mediated relaxation of supercoiled pBR322 plasmid DNA at 10 uM after 30 mins by agarose gel electrophoresis

- GI50 [2]: 45.7 nM
- GI50 ([3]; read-out: GI50): 1.3 nM
- GI50 ([3]; read-out: pGI50 (converted)): 1.32 nM
- GI50 [5]: 32.4 nM
- GI50 [6]: 132 nM
- GI50 [7]: 162 nM
- GI50 [8]: 20.4 nM
- GI50 [9]: 79.4 nM
- GI50 ([10]; read-out: GI50): < 1 nM
- GI50 ([10]; read-out: pGI50 (converted)): 1 nM
- GI50 ([15]; read-out: GI50): 8.8 nM
- GI50 ([15]; read-out: pGI50 (converted)): 8.91 nM
- GI50 ([16]; read-out: GI50): 2.5 nM
- GI50 ([16]; read-out: pGI50 (converted)): 2.51 nM
- GI50 [20]: 26.9 nM
- GI50 [21]: 4.17 nM
- GI50 ([22]; read-out: GI50): 33 nM
- GI50 ([22]; read-out: pGI50 (converted)): 33.1 nM
- GI50 [23]: 2.14 nM
- GI50 [24]: 52.5 nM
- GI50 [25]: 89.1 nM
- GI50 [26]: 39.8 nM
- GI50 [27]: 115 nM
- GI50 [28]: 37.1 nM
- GI50 [29]: 39.8 nM
- GI50 [30]: 3890 nM
- GI50 ([31]; read-out: GI50): 9.4 nM
- GI50 ([31]; read-out: pGI50 (converted)): 9.33 nM
- GI50 [33]: 4.57 nM
- GI50 ([36]; read-out: GI50): 1.8 nM
- GI50 ([36]; read-out: pGI50 (converted)): 1.82 nM
- inhibition [38]: Active
- GI50 ([40]; read-out: GI50): 9.6 nM
- GI50 ([40]; read-out: pGI50 (converted)): 9.55 nM
- inhibition [41]: Active
Compound: COc1cc2c(ccc3c4c(=O)oc5cc(O)c(OC)cc5c4n(C)c23)cc1O
- GI50 [1]: 2.04 nM
- GI50 ([4]; read-out: GI50): 2.6 nM
- GI50 ([4]; read-out: pGI50 (converted)): 2.57 nM
- GI50 [11]: 95.5 nM
- GI50 [12]: 4.57 nM
- GI50 [13]: 3.89 nM
- GI50 [14]: 2.19 nM
- GI50 [17]: 8.13 nM
- GI50 [18]: 4680 nM
- GI50 [19]: 46.8 nM
- GI50 [32]: 13.5 nM
- GI50 [34]: 33.9 nM
- GI50 [35]: 200 nM
- GI50 [37]: 2.82 nM
- GI50 [39]: 10000 nM
